pIC50: −log10 of the molar value. Several values for one entry are separate records, joined by “and”; a condition that tells them apart may be missing. Identical values can stand only once.
Key:
B-RAF = target: T1, B-RAF (Homo sapiens, UniProt P15056, V600E); test: DELFIA Kinase Assay; type: biochemical; settings: 100 μM ATP, GST-MEK substrate
T1 construct: made in house
Experimental: Biological Methods—DELFIA Kinase Assay
Compounds were assessed by a kinase assay performed according to the following protocol.
DKB1 (DKB with B-RAF and MEK Protein):
Combine 4950 μL of DKB and 50 μL of 2.5 mg/ml GST-MEK stock (to give […] of MEK per 40 μL). Then add 22.5 μL of B-RAF to give ˜0.2 μL of B-RAF per 40 μL.
100 mM stock, dilute to 500 μM to give 100 μM final concentration in assay.
• 1. Preblock wells with 5% milk in TBS for 1 hour. • 2. Wash wells with 3× with 200 μL TBS. • 3. Plate out 40 μL of DKB1 for all inhibitors (test compounds), DMSO control, and optionally other control compounds. • 4. Plate out 40 μL of DKB2 for BO and EV wells. • 5. Add inhibitors (test compounds) at 0.5 μL per well according to desired plate layout. • 6. Add 0.5 μL DMSO to vehicle control wells. • 7. Add 2 μL of B-RAF to BO and EV wells. • 8. Pre-incubate with inhibitors (test compounds) for 10 minutes at room temperature with shaking. • 9. Add 10 μL of 500 μM ATP stock, in DKB, to give 100 μM assay concentration. • 10. Seal plates with TopSeal and incubate at room temperature with shaking for 45 minutes. • 11. Wash plates 3× with 200 μL 0.1% Tween20/Water to terminate reaction. • 12. Add 50 μL per well of antibody mix and incubate for 1 hour at room temperature with shaking. • 13. Wash plates 3× with 200 μL 0.1% Tween20/Water. • 14. Add 100 μL DELFIA enhancement solution per well, cover in foil, and incubate at room temperature for 30 minutes with shaking. • 15. Read on Victor using Europium protocol.
(§1) Values for the blank (Empty Vector) are subtracted from all values. The DMSO controls are set as 100% activity and assay points (the response) are calculated as a percentage of the DMSO control. Data are plotted using Graphpad Prism software and a non-linear regression line is calculated using a variable slope sigmoidal dose-response equation (Y=Bottom+(Top−Bottom)/(1+10^((LogEC50−X)*HillSlope)) where X is the logarithm of concentration. Y is the response). The IC50 generated by this procedure is the concentration of the drug that produces a percentage control fluorescence value midway between the saturation, and zero-effect plateaus. Three independent assays are usually performed and the mean IC50 is reported.

pERK = test: Cell Based Phospho-ERK Assay; settings: 6 h, 6 hours incubation with test compound
Experimental: Biological Methods—Cell Based Phosho-ERK Assay
Compounds were assessed using a cell-based assay which was performed according to the following protocol.
Plate out 16,000 cells/well in 99 μL medium in a 96-well plate.
• 1. Add 1 μL inhibitor to the cells (total […] solution). • 2. Incubate the cells with test compound for 6 hours at 37° C. • 3. Aspirate off the solution from all of the wells. • 4. Fixate the cells with 100 μL 4% formaldehyde/0.25% Triton X-100 PBS per well. • 5. Incubate the plate for 1 hour at 4° C. • 6. Aspirate off the fixing solution and add 300 μL TBS per well. • 7. Leave the plate overnight at 4° C. Day 2: • 1. Wash the plate 2× with 200 μL PBS per well. • 2. Block with 100 μL 5% dried milk in TBS. • 3. Incubate the plate for 20 minutes at 37° C. • 4. Wash the plate 2× with 0.1% tween/H2O. • 5. Add 50 μL of 3 μg/mL primary antibody pERK (Sigma M8159), diluted in 5% milk powder/TBS, to each well. • 6. Incubate the plate for 2 hours at 37° C. • 7. Wash the plate 3× with 0.1% tween/H2O. • 8. Add 50 μL of 0.45 μg/mL secondary Europium-labelled anti-mouse antibody (Perkin Elmer) to each well. • 9. Incubate the plate for 1 hour at 37° C. • 10. Wash the plate 3× with 0.1% tween/H2O. • 11. Add 100 μL enhancement solution (Perkin Elmer) to each well. • 12. Leave the plate for approximately 10 minutes at room temperature before gently shaking the plate. • 13. Read Europium Time Resolved Fluorescence in Victor2. • 14. Wash the plate 2× with 0.1% tween/H2O. • 15. Measure the protein concentration with BCA (Sigma) by adding 200 μL of solution per well. • 16. Incubate the plate for 30 minutes at 37° C. • 17. Read absorbance levels at 570 nm in a plate reader.
Note that Europium counts are normalised for protein levels by dividing counts by absorbance.
as §1, with “(no cells)” for “(Empty Vector)”

WM266.4 melanoma cells = test: SRB Cell Proliferation Assay (SRB GI50); type: cell-based; settings: Homo sapiens, WM 266-4, 144 h, 6 days growth
Experimental: Biological Methods —SRB Cell Proliferation Assay (SRB GI50)
Cultures of WM266.4 melanoma cells are routinely cultured in DMEM/10% foetal bovine serum, at 37° C., in 5% CO2 water saturated atmosphere. Cultures are maintained in exponential growth phase by sub-culturing before having become confluent (3-5 day intervals). Single cell suspensions are prepared by harvesting an 80 cm^2 tissue culture flask with 5 mL commercial trypsin EDTA. After 5 minutes, the detached cells are mixed with 5 mL fully complemented culture medium and centrifugally pelleted (1000 rpm for 7 minutes). After aspirating the supernatant, the cell pellet is re-suspended in 10 mL fresh medium and the cells fully disaggregated by drawing the whole volume up/down 5 times through a 19-gauge needle. The concentration of the cells is determined using a haemocytometer (1/10 dilution). A suitable volume to give at least a 2-fold excess for the number of tests being conducted, typically 100-200 mL, is prepared by diluting the cell suspension to 10,000/mL, and 100 μL/well dispensed into 96 well plates using a programmable 8-channel peristaltic pump, giving 1000 cells/well, leaving column 12 blank. The plates are returned to the incubator for 24 hours to allow the cells to re-attach.
The compounds being tested are prepared at 20 mM in dimethylsulphoxide. Aliquots (200 μL) are diluted into 20 mL culture medium giving 200 μM, and 10 serial dilutions of 3× performed by transferring 5 mL to 10 mL. Aliquots (100 μL) of each dilution are added to the wells, using an 8-channel pipettor, thus performing a final further 2× dilution, and giving doses ranging from 100 μM to 0.005 μM. Column 11 receives plain culture medium only. Each compound is tested in quadruplicate, each replicate being the average of four wells, and two plates per compound.
After a further 6 days growth, the plates are emptied, and the cells are fixed in 10% trichloroacteic acid for 10 minutes on ice. After thorough rinsing in running tap water, the plates are dried, and stained by adding 50 μL of a solution of 0.1% sulphorhodamine-B in 1% acetic acid, for 10 minutes at room temperature. The stain is poured out and the plates thoroughly rinsed under a stream of 1% acetic acid, thus removing unbound stain, and dried. The bound stain is taken into solution by addition of 150 μL Tris buffer pH 8, followed by 10 minutes on a plate-shaker (approximately 500 rpm). The absorbance at 540 nm in each well (being proportional to the number of cells present) is determined using a plate reader.
After averaging the results in rows A-D and E-H, the blank value (row 12) is subtracted, and results expressed as percentage of the untreated value (row 11). […] The GI50 generated by this procedure is the concentration of the drug that produces a percentage control A540 midway between the saturation, and zero-effect plateaus.

T1 sequence (P15056 whole entry V600E): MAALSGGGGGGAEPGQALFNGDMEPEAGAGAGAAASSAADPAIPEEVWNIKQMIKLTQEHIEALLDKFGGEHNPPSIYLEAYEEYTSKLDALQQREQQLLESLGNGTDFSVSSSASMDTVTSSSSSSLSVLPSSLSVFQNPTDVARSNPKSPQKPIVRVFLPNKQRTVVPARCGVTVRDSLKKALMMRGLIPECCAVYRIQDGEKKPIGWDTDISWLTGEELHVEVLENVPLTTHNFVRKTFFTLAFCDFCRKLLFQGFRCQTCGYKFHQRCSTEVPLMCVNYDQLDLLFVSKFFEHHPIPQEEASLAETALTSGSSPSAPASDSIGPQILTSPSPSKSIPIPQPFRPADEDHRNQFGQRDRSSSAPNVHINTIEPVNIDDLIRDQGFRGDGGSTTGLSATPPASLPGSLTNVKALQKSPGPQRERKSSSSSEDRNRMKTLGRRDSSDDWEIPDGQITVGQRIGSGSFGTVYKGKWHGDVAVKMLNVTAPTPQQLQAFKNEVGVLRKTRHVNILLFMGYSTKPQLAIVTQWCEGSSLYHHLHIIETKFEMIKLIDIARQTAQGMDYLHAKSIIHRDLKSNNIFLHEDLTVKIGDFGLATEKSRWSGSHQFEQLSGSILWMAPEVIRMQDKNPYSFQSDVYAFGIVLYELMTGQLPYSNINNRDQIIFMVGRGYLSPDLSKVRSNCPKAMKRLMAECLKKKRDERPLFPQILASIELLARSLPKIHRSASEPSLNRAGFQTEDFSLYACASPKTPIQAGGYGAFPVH

Row | Structure (SMILES) | pIC50 (B-RAF) | pIC50 (pERK) | GI50 (WM266.4 melanoma cells)
1 | COc1ccc(-n2nc(C(C)(C)C)cc2NC(=O)Nc2ccc(Oc3ccnc4[nH]c(=O)cnc34)cc2F)cn1 [AA-062, 1-(3-tert-butyl-1-(6-methoxypyridin-3-yl)-1H-pyrazol-5-yl)-3-(2-fluoro-4-(3-oxo-3,4-dihydropyrido[2,3-b]pyrazin-8-yloxy)phenyl)urea] | > 7.00 | > 6.00 | < 1 µM
2 | Cc1ccc(-n2nc(C(C)(C)C)cc2NC(=O)Nc2ccc(Oc3ccnc4[nH]c(=O)c(N)nc34)c3ccccc23)cc1 [AA-077, 1-(4-(2-amino-3-oxo-3,4-dihydropyrido[2,3-b]pyrazin-8-yloxy)naphthalen-1-yl)-3-(3-tert-butyl-1-p-tolyl-1H-pyrazol-5-yl)urea] | 6.00 to 7.00 | > 6.00 | < 1 µM
3 | CC(C)(C)c1cc(NC(=O)Nc2ccc(Oc3ccnc4[nH]c(=O)c(=O)[nH]c34)cc2F)n(-c2ccc(S(C)(=O)=O)cc2)n1 [AA-092, 1-(3-tert-butyl-1-(4-(methylsulfonyl)phenyl)-1H-pyrazol-5-yl)-3-(4-(2,3-dioxo-1,2,3,4-tetrahydropyrido[3,2-b]pyrazin-8-yloxy)-2-fluorophenyl)urea] | 6.00 to 7.00 | 5.00 to 6.00 | 1 to 10 µM
4 | CC(C)(C)c1cc(NC(=O)Nc2ccc(Oc3ccnc4[nH]c(=O)c(=O)[nH]c34)cc2F)n(-c2ccccc2)n1 [AA-091, 1-(3-Tert-butyl-1-phenyl-1H-pyrazol-5-yl)-3-(4-(2,3-dioxo-1,2,3,4-tetrahydropyrido[3,2-b]pyrazin-8-yloxy)-2-fluorophenyl)urea] | 6.00 to 7.00 | > 6.00 | < 1 µM
5 | CSc1cc(Oc2ccnc3[nH]c(=O)c(C)nc23)ccc1NC(=O)Nc1cc(C(C)(C)C)nn1-c1ccccc1 [AA-065, 1-(3-tert-butyl-1-phenyl-1H-pyrazol-5-yl)-3-(4-(2-methyl-3-oxo-3,4-dihydropyrido[2,3-b]pyrazin-8-yloxy)-2-(methylthio)phenyl)urea] | > 7.00 | > 6.00 | < 1 µM
6 | Cc1ccc(-n2nc(C(C)(C)C)cc2NC(=O)Nc2cccc(Oc3ccnc4[nH]c(=O)c(C)nc34)c2)cc1 [AA-078, 1-(3-tert-butyl-1-p-tolyl-1H-pyrazol-5-yl)-3-(3-(2-methyl-3-oxo-3,4-dihydropyrido[2,3-b]pyrazin-8-yloxy)phenyl)urea] | 6.00 to 7.00 | > 6.00 | < 1 µM
7 | O=C(Nc1ccc(Oc2ccnc3[nH]c(=O)cnc23)c(F)c1)Nc1cc(C(F)(F)F)ccc1F [AA-086, 1-(3-fluoro-4-(3-oxo-3,4-dihydropyrido[2,3-b]pyrazin-8-yloxy)phenyl)-3-(2-fluoro-5-(trifluoromethyl)phenyl)urea] | > 7.00 | 5.00 to 6.00 | 1 to 10 µM
8 | CN(C)c1cnc2c(Oc3ccc(NC(=O)Nc4cc(C(F)(F)F)ccc4F)c(F)c3)ccnc2n1 [AA-068, 1-(4-(3-(dimethylamino)pyrido[3,2-b]pyrazin-8-yloxy)-2-fluorophenyl)-3-(2-fluoro-5-(trifluoromethyl)phenyl)urea] | 6.00 to 7.00 | – | 1 to 10 µM
9 | O=C(Nc1cc(C(F)(F)F)ccc1F)Nc1ccc(Oc2ccnc3[nH]c(=O)cnc23)c2ccccc12 [AA-012, 1-(2-fluoro-5-(trifluoromethyl)phenyl)-3-(4-(3-oxo-3,4-dihydropyrido[2,3-b]pyrazin-8-yloxy)naphthalen-1-yl)urea] | > 6.00 and 6.00 to 7.00 | – | 1 to 10 µM
10 | O=C(Nc1cccc(Oc2ccnc3[nH]c(=O)cnc23)c1)Nc1cc(C(F)(F)F)ccc1F [AA-007, 1-(2-fluoro-5-(trifluoromethyl)phenyl)-3-(3-(3-oxo-3,4-dihydropyrido[2,3-b]pyrazin-8-yloxy)phenyl)urea] | > 7.00 | – | 1 to 10 µM
11 | CN(C)c1cnc2c(Oc3ccc(NC(=O)Nc4cc(C(C)(C)C)nn4-c4ccccc4)c(F)c3)ccnc2n1 [AA-070, 1-(3-Tert-butyl-1-phenyl-1H-pyrazol-5-yl)-3-(4-(3-(dimethylamino)pyrido[3,2-b]pyrazin-8-yloxy)-2-fluorophenyl)urea] | – | 5.00 to 6.00 | 1 to 10 µM
12 | Cc1ccc(-n2nc(C(C)(C)C)cc2NC(=O)Nc2ccc(Oc3ccnc4nc(N5CCOCC5)cnc34)cc2F)cc1 [AA-073, 1-(3-tert-butyl-1-p-tolyl-1H-pyrazol-5-yl)-3-(2-fluoro-4-(3-morpholinopyrido[3,2-b]pyrazin-8-yloxy)phenyl)urea] | – | > 6.00 | < 1 µM
13 | CC(C)(C)c1cc(NC(=O)Nc2ccc(Oc3ccnc4[nH]c(=O)cnc34)cc2F)n(CC2CCC2)n1 [AA-099, 1-(3-Tert-butyl-1-(cyclobutylmethyl)-1H-pyrazol-5-yl)-3-(2-fluoro-4-(3-oxo-3,4-dihydropyrido[3,2-b]pyrazin-8-yloxy)phenyl)urea] | – | > 6.00 | 1 to 10 µM
